Literature values as cited in patent US4801604A (priority 1987, dated 1989).

Settings: phenytoin and structurally related drugs

O=C1NC(=O)C(c2ccccc2)(c2ccccc2)N1 [phenytoin]
Side effects (in words): hyperplasia of the gums, cerebellar degeneration, gastric distress and serious skin rashes
